Test results published in patent publication US12365674B2, “Inhibitors of histone deacetylase useful for the treatment or prevention of HIV infection” (Merck Sharp & Dohme LLC, priority 2019, dated 2025).

Target: T1, HDAC6 (Homo sapiens, UniProt Q9UBN7)
T1 sequence (Q9UBN7 1-1215): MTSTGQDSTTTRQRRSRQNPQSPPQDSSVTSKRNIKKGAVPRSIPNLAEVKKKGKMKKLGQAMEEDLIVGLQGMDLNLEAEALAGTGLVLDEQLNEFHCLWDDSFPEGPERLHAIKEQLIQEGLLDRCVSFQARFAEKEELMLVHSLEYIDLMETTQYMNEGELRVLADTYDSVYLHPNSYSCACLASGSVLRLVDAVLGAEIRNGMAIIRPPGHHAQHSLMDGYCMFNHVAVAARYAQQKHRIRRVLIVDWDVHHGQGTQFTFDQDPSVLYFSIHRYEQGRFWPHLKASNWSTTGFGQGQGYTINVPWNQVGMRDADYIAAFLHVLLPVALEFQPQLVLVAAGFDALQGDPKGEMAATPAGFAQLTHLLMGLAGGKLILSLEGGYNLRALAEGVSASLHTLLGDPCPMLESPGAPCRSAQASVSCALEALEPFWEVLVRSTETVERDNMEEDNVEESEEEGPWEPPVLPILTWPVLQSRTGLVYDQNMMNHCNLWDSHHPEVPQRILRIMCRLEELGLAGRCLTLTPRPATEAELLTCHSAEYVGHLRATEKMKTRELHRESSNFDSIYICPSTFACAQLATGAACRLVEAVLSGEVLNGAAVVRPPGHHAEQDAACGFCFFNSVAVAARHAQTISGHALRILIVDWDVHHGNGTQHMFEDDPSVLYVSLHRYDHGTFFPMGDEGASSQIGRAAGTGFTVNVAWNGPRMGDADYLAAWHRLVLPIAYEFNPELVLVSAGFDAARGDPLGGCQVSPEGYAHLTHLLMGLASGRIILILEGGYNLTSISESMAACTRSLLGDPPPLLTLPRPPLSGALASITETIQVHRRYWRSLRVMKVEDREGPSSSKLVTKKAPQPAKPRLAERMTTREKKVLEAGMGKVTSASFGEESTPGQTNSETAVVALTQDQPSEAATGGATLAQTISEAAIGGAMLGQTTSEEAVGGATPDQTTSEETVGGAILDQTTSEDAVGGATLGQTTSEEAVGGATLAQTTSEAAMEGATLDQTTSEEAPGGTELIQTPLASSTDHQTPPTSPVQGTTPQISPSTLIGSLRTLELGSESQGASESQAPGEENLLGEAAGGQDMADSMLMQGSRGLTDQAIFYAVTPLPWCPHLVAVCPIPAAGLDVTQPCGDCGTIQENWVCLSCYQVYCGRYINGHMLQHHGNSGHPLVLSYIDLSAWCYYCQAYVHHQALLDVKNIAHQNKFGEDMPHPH
Assay: Human HDAC enzyme inhibitor Fluor-de-Lys assay, HDAC6
Type: biochemical
Settings: 1.3 nM enzyme, 2.5 μM substrate BML-KI104, 3 h pre-incubation, 60 min reaction; read-out: HDAC6_IC50
Description: Recombinant human HDAC8 (catalog number BML-SE145-0100) and HDAC10 (catalog number BML-SE559-0050) enzymes, HDAC substrates BML-KI104 and BML-KI178, and HDAC developer solutions BML-KI105 and BML-KI176 were purchased from Enzo Life Sciences (Farmingdale, NY). Recombinant human HDAC5 and HDAC11 were purchased from BPS Bioscience (San Diego, CA)(catalog numbers 50045 and 50021). Substrate Boc-Lys(TFA)-AMC was obtained from Bachem (Bupendorf, Switzerland) (catalog number 1-1985). HDAC inhibitor suberoylanilide hydroxamic acid (SAHA) was obtained from Indofine (Hillsborough Township, NJ) and trichostatin A (TSA) was obtained from Sigma-Aldrich (St. Louis, MO). […] HEPES pH 8.0 was obtained from Boston BioProducts (Ashland, MA), Tween-20 from Fisher Scientific (Hampton, NH)(catalog number BP337), TCEP from Calbiochem and 7.5% bovine serum albumin (BSA) from Life Technologies (Carlsbad, CA) (catalog number 15260037). 384-well, black assay plates were obtained from Corning (Corning, NY) (catalog number 3575).
The histone deacetylase activities of HDAC1, HDAC2, HDAC3, HDAC6, and HDAC8 were measured in modified Fluor-de-Lys assays in 384-well format. In this assay, HDAC enzymes are initially incubated with an ε-acetyl (or -trifluoroacetyl)-L-lysine-containing substrate with a C-terminal amide having aminomethylcoumarin as the amine component. HDACs cleave the ε-acetyl group, rendering the resulting product susceptible to AMC cleavage by trypsin. The released AMC is then detected by its fluorescence.
The HDAC 1, 2 assays employed buffer A, which contained 20 mM HEPES, pH 8.0, 1 mM MgCl2, 137 mM NaCl, 2.7 mM KCl, 0.05% BSA. The HDAC3/SMRT assay employed buffer B, consisting of 20 mM HEPES, pH 8.0, 1 mM MgCl2, 50 mM NaCl, 2.7 mM KCl, 0.05% BSA, 0.005% Tween 20, and 10 μM IP4. The HDAC6 assay employed buffer C, consisting of 20 mM HEPES, pH 8.0, 1 mM MgCl2, 137 mM NaCl, 2.7 mM KCl, 0.5 mM TCEP (Calbiochem) and 0.05% BSA. The HDAC8 assay employed buffer D, consisting of 20 mM HEPES, pH 8.0, 1 mM MgCl2, 100 mM NaCl, 20 mM KCl, 0.1% n-octyl-β-D-glucoside (Anatrace, Maumee, OH) and 0.05% BSA. All steps were performed at room temperature (23° C.). The assay was performed by pre-incubating serial dilutions of test compounds with the target HDAC prior to initiation with substrate. Each compound was titrated in a 10-point dose response, using a 1:3 fold dilution scheme, with 0.15 ul of solution added by ECHO555 to the plate, followed by the addition of 20 μl of the appropriate HDAC isoform diluted in appropriate assay buffer. […] Final conditions used for each assay were: 1. HDAC 1, 0.3 nM total enzyme, 20 μM substrate BML-K1104; 2. HDAC 2, 1.5 nM total enzyme, 40 μM substrate BML-K1104; 3. HDAC 3/SMRT, 0.3 nM total enzyme, 20 μM substrate BML-K1104; 4. HDAC 6, 1.3 nM total enzyme, 2.5 μM substrate BML-K1104; 5. HDAC 8, 1.3 nM total enzyme, 200 μM substrate BML-K1178; the final high dose of test compound was 30 μM. For potent compounds, 900 nM was used as the final high dose. The reactions were stopped and developed by addition of 30 ul of HDAC developer solution containing a saturating level of HDAC inhibitor as follows: 1.

| Compound | IC50 [nM] |
| --- | --- |
| CN1CC(C(=O)N[C@@H](COCCCC(=O)c2ccon2)c2[nH]c(-c3ccc(F)cc3)nc2Cl)C1 [Compound 16, N-[(1R)-1-[4-chloro-2-(4-fluorophenyl)-1H-imidazol-5-yl]-2-(4-isoxazol-3-yl-4-oxobutoxy)ethyl]-1-methylazetidine-3-carboxamide] | > 900 |
| CN(C)CC(=O)N[C@@H](COCCCC(=O)c1ccon1)c1[nH]c(-c2ccc(F)cc2)nc1Cl [Compound 17, N-[(1R)-1-[4-chloro-2-(4-fluorophenyl)-1H-imidazol-5-yl]-2-(4-isoxazol-3-yl-4-oxobutoxy)ethyl]-N~2~,N~2~- dimethylglycinamide] | > 900 |
| CN1CCC2(CC1)C[C@@H]2C(=O)N[C@@H](COCCCC(=O)c1ccon1)c1[nH]c(-c2ccc(F)cc2)nc1Cl [Compound 18, (1S)-N-[(1R)-1-[4-chloro-2-(4-fluorophenyl)-1H-imidazol-5-yl]-2-(4-isoxazol-3-yl-4-oxobutoxy)ethyl]-6-methyl-6-azaspiro[2.5]octane-1-carboxamide] | > 900 |
| COc1cc2nc(C)ccc2cc1-c1cnc([C@H](COCCCC(=O)c2cc(C)on2)NC(=O)C2CN(C)C2)[nH]1 [Compound 19, N-{(1R)-1-[5-(7-methoxy-2-methylquinolin-6-yl)-1H-imidazol-2-yl]-2-[4-(5-methylisoxazol-3-yl)-4-oxobutoxy]ethyl}-1-methylazetidine-3-carboxamide] | 469 |
| COc1cc2nc(C)ccc2cc1-c1cnc([C@H](COCCCC(=O)c2cc(C)on2)NC(=O)[C@H]2CC23CCN(C)CC3)[nH]1 [Compound 20, (1S)-N-{(1R)-1-[5-(7-methoxy-2-methylquinolin-6-yl)-1H-imidazol-2-yl]-2-[4-(5-methylisoxazol-3-yl)-4-oxobutoxy]ethyl}-6-methyl-6-azaspiro[2.5]octane-1-carboxamide] | > 900 |
| Cc1ccc2cc(-c3cnc([C@H](CSCCCC(=O)c4ncco4)NC(=O)[C@H]4CC45CCN(C)CC5)[nH]3)ccc2n1 [Compound 21, (1S)-6-methyl-N-[(1R)-1-[5-(2-methylquinolin-6-yl)-1H-imidazol-2-yl]-2-{[4-(1,3-oxazol-2-yl)-4-oxobutyl]sulfanyl}ethyl]-6-azaspiro[2.5]octane-1-carboxamide] | 19300 |
